Assay results taken from US8455467B2, “2-methylene-vitamin D analogs and their uses” (Wisconsin Alumni Research Foundation, priority 2011, dated 2013).

Assays:
[1] = target: T1, full-length recombinant rat vitamin D receptor (Rattus norvegicus, UniProt P13053); assay: Vitamin D receptor competitive binding with [3H]-1,25(OH)2D3; settings: full-length recombinant rat VDR; for Ki: 1 nM radioligand, read-out: Ki, competition with [3H]-1,25(OH)2D3 for binding to the vitamin D receptor; for binding affinity to the receptor compared to 1,25-(OH)2D3: in words
T1 construct: Full-length recombinant rat receptor was expressed in E. coli BL21 (DE3) Codon Plus RIL cells; His tag (histidine tag) (C); made in house; host or cells: E. coli BL21 (DE3) Codon Plus RIL
T1 sequence (P13053 1-423): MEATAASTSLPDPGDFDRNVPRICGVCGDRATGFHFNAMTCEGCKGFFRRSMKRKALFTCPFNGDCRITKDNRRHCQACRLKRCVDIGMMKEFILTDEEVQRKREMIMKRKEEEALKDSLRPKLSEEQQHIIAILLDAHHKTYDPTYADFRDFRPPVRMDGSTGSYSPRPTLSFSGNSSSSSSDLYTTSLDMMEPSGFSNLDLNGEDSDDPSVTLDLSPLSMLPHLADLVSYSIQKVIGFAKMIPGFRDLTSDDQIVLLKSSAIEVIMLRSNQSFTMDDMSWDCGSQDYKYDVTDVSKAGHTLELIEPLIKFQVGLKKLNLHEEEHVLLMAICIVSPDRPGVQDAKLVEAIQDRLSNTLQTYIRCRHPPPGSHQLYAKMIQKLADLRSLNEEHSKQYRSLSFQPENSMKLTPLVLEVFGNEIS
Protocol: Full-length recombinant rat receptor was expressed in E. coli BL21 (DE3) Codon Plus RIL cells and purified to homogeneity using two different column chromatography systems. The first system was a nickel affinity resin that utilizes the C-terminal histidine tag on this protein. The protein that was eluted from this resin was further purified using ion exchange chromatography (S-Sepharose Fast Flow). Aliquots of the purified protein were quick frozen in liquid nitrogen and stored at −80° C. until use. For use in binding assays, the protein was diluted in TEDK50 (50 mM Tris, 1.5 mM EDTA, pH7.4, 5 mM DTT, 150 mM KCl) with 0.1% Chaps detergent. The receptor protein and ligand concentration was optimized such that no more than 20% of the added radiolabeled ligand was bound to the receptor.
Radiolabeled and unlabeled ligands were added to 100 mcl of the diluted protein at a final ethanol concentration of ≦10%, mixed and incubated overnight on ice to reach binding equilibrium. The following day, 100 mcl of hydroxylapatite slurry (50%) was added to each tube and mixed at 10-minute intervals for 30 minutes. The hydroxylapaptite was collected by centrifugation and then washed three times with Tris-EDTA buffer (50 mM Tris, 1.5 mM EDTA, pH 7.4) containing 0.5% Titron X-100. After the final wash, the pellets were transferred to scintillation vials containing 4 ml of Biosafe II scintillation cocktail, mixed and placed in a scintillation counter. Total binding was determined from the tubes containing only radiolabeled ligand.

[2] = system: Human promyelocytic leukemia (HL60) cells; assay: HL-60 cell differentiation (nitro blue tetrazolium reduction); type: cell-based; settings: for EC50: 4 days treatment, NBT reduction; for potency on HL-60 cell differentiation compared to 1,25(OH)2D3: in words
Protocol: Serial dilutions were prepared so that a range of drug concentrations could be tested without changing the final concentration of ethanol 0.2%) present in the cell cultures.
Human promyelocytic leukemia (HL60) cells were grown in RPMI-1640 medium containing 10% fetal bovine serum. The cells were incubated at 37° C. in the presence of 5% CO2.
HL60 cells were plated at 1.2×10^5 cells/ml. Eighteen hours after plating, cells in duplicate were treated with drug. Four days later, the cells were harvested and a nitro blue tetrazolium reduction assay was performed (Collins et al., 1979; J. Exp. Med. 149:969-974). The percentage of differentiated cells was determined by counting a total of 200 cells and recording the number that contained intracellular black-blue formazan deposits. Verification of differentiation to monocytic cells was determined by measuring phagocytic activity (data not shown).

[3] = Bone calcium mobilization (serum calcium) in vitamin D-deficient rats; type: in vivo, rat; settings: 0.02% Ca diet; for bone calcium mobilization (serum calcium) at 87 pmol: 87 pmol/day for 4 consecutive days; for bone calcium mobilization activity (serum calcium): 4 consecutive ip doses, overall, compared to 1,25(OH)2D3; for bone calcium mobilization (serum calcium) at 780 pmol: 780 pmol/day for 4 consecutive days
Protocol: (§1) Male, weanling Sprague-Dawley rats were placed on Diet 11 (Suda et al, J. Nutr. 100:1049, 1970) (0.47% Ca)+vitamins AEK for one week followed by Diet 11 (0.02% Ca)+vitamins AEK for 3 weeks. The rats were then switched to the same diet containing 0.47% Ca for one week followed by two weeks on the same diet containing 0.02% Ca. Dose administration began during the last week on 0.02% calcium diet. Four consecutive ip doses were given approximately 24 hours apart. Twenty-four hours after the last dose, blood was collected from the severed neck and the concentration of serum calcium determined by atomic absorption spectrometry as a measure of bone calcium mobilization. The first 10 cm of the intestine was also collected for intestinal calcium transport analysis using the everted gut sac method.

[4] = Intestinal calcium transport (everted gut sac method) in vitamin D-deficient rats; type: in vivo, rat; settings: 0.02% Ca diet, 4 consecutive ip doses, compared to 1,25(OH)2D3
Protocol: as §1

C=C1CC(=C)[C@H](O)C/C1=C/C=C1\CCC[C@]2(C)[C@@H]([C@H](C)CCCC(C)(C)O)CC[C@@H]12 [1D-QM, (20R)-25-hydroxy-2-methylene-vitamin D3]
Ki [1]: 0.9 nM
binding affinity to the receptor compared to 1,25-(OH)2D3 [1]: about the same affinity
EC50 ([2]; Homo sapiens, HL-60, 96 h): > 100 nM
potency on HL-60 cell differentiation compared to 1,25(OH)2D3 [2]: almost as potent as 1,25(OH)2D3
bone calcium mobilization (serum calcium) at 87 pmol [3]: little or no mobilization of bone calcium
bone calcium mobilization activity (serum calcium) [3]: less potent than the native hormone

C=C1CC(=C)[C@H](O)C/C1=C/C=C1\CCC[C@]2(C)[C@@H]([C@@H](C)CCCC(C)(C)O)CC[C@@H]12 [1D-QMS, (20S)-25-hydroxy-2-methylene-vitamin D3]
Ki [1]: 0.2 nM
binding affinity to the receptor compared to 1,25-(OH)2D3 [1]: about the same affinity
EC50 ([2]; Homo sapiens, HL-60, 96 h): 10 nM
potency on HL-60 cell differentiation compared to 1,25(OH)2D3 [2]: almost as potent as 1,25(OH)2D3
bone calcium mobilization (serum calcium) at 780 pmol [3]: significant mobilization of bone calcium
bone calcium mobilization activity (serum calcium) [3]: about the same potency as the native hormone
intestinal calcium transport activity [4]: about equivalent to 1,25(OH)2D3

C=C1/C(=C\C=C2/CCC[C@]3(C)[C@@H]([C@H](C)CCCC(C)(C)O)CC[C@@H]23)C[C@@H](O)C[C@@H]1O [1α,25-dihydroxyvitamin D3, reference compound]
EC50 [2]: 3 nM
bone calcium mobilization (serum calcium) at 87 pmol [3]: significant increases in serum calcium
bone calcium mobilization (serum calcium) at 780 pmol [3]: significant increases in serum calcium
bone calcium mobilization activity (serum calcium) [3]: increased serum calcium levels
